Several values for one entry are separate records, joined by “and”; a condition that tells them apart may be missing. Equal entries are not always repeated. Where two headings read alike, the source gives them in different places.
Molecular target: influenza B polymerase bound to a c/v hybrid promoter (Influenza B virus, UniProt Q5V8Y6)
Assay: biochemical
Parameters: species or system influenza B/Memphis/13/03
[1] = 0.025 mM NTPs, capped RNA primed, T ∼ 21°C, t = 10 min, read-out: IC50 (mM), c/v hybrid promoter
[2] = 0.25 mM NTPs, capped RNA primed, T ∼ 21°C, t = 5 min, read-out: IC50 (mM), c/v hybrid promoter

| SMILES | IC50 [1] [mM] | IC50 [2] [mM] | IC50 (IC50 (mM), c/v hybrid promoter) |
| --- | --- | --- | --- |
| Nc1ncnc2c1ncn2[C@@H]1O[C@H](COP(=O)(O)OP(=O)(O)OP(=O)(O)O)[C@@H](O)[C@H]1F [2'F-2'dATP] | 0.04 | 0.33 | – |
| Nc1ccn([C@@H]2O[C@H](COP(=O)(O)OP(=O)(O)OP(=O)(O)O)[C@@H](O)[C@H]2F)c(=O)n1 [2'F-2'dCTP] | – | – | 0.45 mM and 1.9 mM |
| Nc1nc2c(ncn2[C@@H]2O[C@H](COP(=O)(O)OP(=O)(O)OP(=O)(O)O)[C@@H](O)[C@H]2F)c(=O)[nH]1 [2'F-2'dGTP] | 0.04 | 0.34 | – |

— article PMC5399792 (Nucleic Acids Research, 2017)
